Reference: patent US20030216293A1, “Use of composition comprising at least one substance within the group GnRH-analogues for treatment of obsessive -compulsive disorder (OCD)” (priority 1998, published 2003)

Tests used:
[1] = tested on: patient with a severe form of OCD; assay: Case study: treatment of a patient with a severe form of OCD; type: in vivo, human
Description: The GnRH-analogue triptorelin is available in a pharmaceutical preparation (Decapeptyl® Depot). In the use of this preparation, an injection is administered containing triptorelin embonate in a dose corresponding to 3.75 mg triptorelin. Injections with this dose are given intramuscularly. They should be repeated every fourth week from the first injection.
A detailed case study of the treatment of a patient with a severe form of OCD is disclosed in the following, as supporting evidence of the effect of the method.
A then person was referred to a psychiatric specialist clinic from another qualified psychiatrist for evaluation and treatment of a severe condition of OCD.
The situation when the patient came to the clinic was that they had sickness pension since more than ten years. They lived alone in a small apartment which they hardly ever left. Obsessions and compulsive rituals occupied most of their time. They repeated against their will meaningless strings of words silently during several hours every day. They felt they had to read the newspaper according to certain ritual patterns; if they did anything wrong, they had to start again from the beginning. Sometimes, it took them the whole day to read the newspaper. […] Among other things, they placed their books so that the covers were strictly oriented along north-south lines. Their contacts with other persons were highly restraint and mainly limited to some relatives.
The clinical diagnosis was that they suffered from a very serious form of OCD. They were also found to be intelligent without any signs of any other mental illness or personality disorder. Thus, it was a clearly defined case of OCD.
During long periods of time the patient had been treated with the drugs which presently are considered to have the best effect against OCD. In the treatment of the patient they had also been given supportive psychotherapy.
In order to overcome this, treatment with the long-acting GnRH-analogue triptorelin (Decapeptyl® Depot) was given every fourth week as deep intramuscular depot injections with a dose corresponding to 3.75 mg triptorelin in each injection.

[2] = tested on: symptoms of androgenic hyperactivity; assay: Case study: treatment against the patient's symptoms of androgenic hyperactivity; type: in vivo, human; conditions: one patient (male pattern baldness, sebaceous skin, acne, sexual drive)
Description: An endocrinological investigation was performed, based upon their symptoms of androgenic hyperactivity.

[3] = one patient, 3.75 mg i.m. depot every fourth week, after two plus another two months

Structure (SMILES) | OCD-symptoms, initial phase of treatment ([1]; one patient, 3.75 mg deep intramuscular depot injection every fourth week, initially) | patient's condition after two months treatment ([1]; one patient, 3.75 mg i.m. depot every fourth week, after two months) | obsessive thoughts after another two months [1, 3] | patient's condition after another two months [1, 3] | clinical outcome of very severe OCD ([1]; one patient, after three months of treatment) | effect on symptoms of androgenic hyperactivity [2] | effect on OCD ([1]; one patient, given as anti-androgenic treatment) | improvement of OCD on previous treatment ([1]; same patient, treated before triptorelin)
CC(C)C[C@H](NC(=O)[C@@H](Cc1c[nH]c2ccccc12)NC(=O)[C@H](Cc1ccc(O)cc1)NC(=O)[C@H](CO)NC(=O)[C@H](Cc1c[nH]c2ccccc12)NC(=O)[C@H](Cc1c[nH]cn1)NC(=O)[C@@H]1CCC(=O)N1)C(=O)N[C@@H](CCCNC(=N)N)C(=O)N1CCC[C@H]1C(=O)NCC(N)=O [triptorelin] | accentuation of the patients OCD-symptoms | began to feel better | all obsessive thoughts had disappeared | dramatically better | substantially recovered | – | – | –
CC(=O)O[C@]1(C(C)=O)CC[C@H]2[C@@H]3C=C(Cl)C4=CC(=O)[C@@H]5C[C@@H]5[C@]4(C)[C@H]3CC[C@@]21C [cyproterone acetate] | – | – | – | – | – | without any significant effects | without any obvious effect | without any major improvement
